Patent publication US9579314B2 (priority 2015, dated 2017)
pIC50: −log10 of the molar value.

What was measured:
[1] = molecular target: Human β2 adrenoceptor (Homo sapiens, UniProt P07550); conditions: read-out: B2 binding affinity
[2] = molecular target: Human M3 receptor (Homo sapiens, UniProt P20309); conditions: read-out: M3 binding affinity
Chain of Human M3 receptor (P20309 whole entry): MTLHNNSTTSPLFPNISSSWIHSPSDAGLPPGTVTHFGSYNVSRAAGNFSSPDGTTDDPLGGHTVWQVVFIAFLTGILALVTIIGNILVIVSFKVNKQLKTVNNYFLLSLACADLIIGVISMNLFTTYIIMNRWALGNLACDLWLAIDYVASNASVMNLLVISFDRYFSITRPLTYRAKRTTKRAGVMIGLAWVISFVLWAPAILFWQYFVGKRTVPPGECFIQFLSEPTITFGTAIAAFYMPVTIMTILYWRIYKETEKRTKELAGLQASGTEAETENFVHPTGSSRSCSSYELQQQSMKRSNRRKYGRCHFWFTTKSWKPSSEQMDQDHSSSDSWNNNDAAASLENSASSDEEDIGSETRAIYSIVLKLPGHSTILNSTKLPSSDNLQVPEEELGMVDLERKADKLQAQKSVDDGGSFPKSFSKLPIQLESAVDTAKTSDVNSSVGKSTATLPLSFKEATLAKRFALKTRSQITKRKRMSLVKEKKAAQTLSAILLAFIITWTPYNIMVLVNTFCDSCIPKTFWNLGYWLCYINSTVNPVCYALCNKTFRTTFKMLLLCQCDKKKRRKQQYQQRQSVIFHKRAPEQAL

Chain of Human β2 adrenoceptor (P07550 whole entry): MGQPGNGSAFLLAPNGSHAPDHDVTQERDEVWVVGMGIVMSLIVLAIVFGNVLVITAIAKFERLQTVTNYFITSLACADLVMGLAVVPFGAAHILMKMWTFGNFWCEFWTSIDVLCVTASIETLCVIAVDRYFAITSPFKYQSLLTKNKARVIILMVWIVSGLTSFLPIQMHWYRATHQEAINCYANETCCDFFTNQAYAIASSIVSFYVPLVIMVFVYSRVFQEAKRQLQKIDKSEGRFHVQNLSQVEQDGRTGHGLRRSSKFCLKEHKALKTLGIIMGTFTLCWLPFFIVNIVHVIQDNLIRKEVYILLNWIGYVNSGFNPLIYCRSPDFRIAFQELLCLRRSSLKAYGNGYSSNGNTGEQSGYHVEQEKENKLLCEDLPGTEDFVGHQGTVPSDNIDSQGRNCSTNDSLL

O=C(N[C@H]1C[C@H](NC(=O)c2ccc(COc3cccc([C@](O)(C(=O)OCC4CCN(Cc5ccccc5)CC4)c4ccccc4)c3)cc2)C1)c1ccc(CNC[C@H](O)c2ccc(O)c3[nH]c(=O)ccc23)cc1 [Compound 123, (1-benzylpiperidin-4-yl)methyl (S)-2-hydroxy-2-(3-((4-(((1R,3S)-3-(4-((((R)-2-hydroxy-2-(8-hydroxy-2-oxo-1,2-dihydroquinolin-5-yl)ethyl)amino)methyl)benzamido)cyclobutyl)carbamoyl)benzyl)oxy)phenyl)-2-phenylacetate]
pIC50 [1]: 8.52 to 9.52
pIC50 [2]: 8.52 to 9.52

O=C(c1ccc(CCNC[C@H](O)c2ccc(O)c3[nH]c(=O)ccc23)cc1)N1CC(COc2cccc([C@](O)(C(=O)OCC3CCN(Cc4ccccc4)CC3)c3ccccc3)c2)C1 [Compound 42, (S)-(1-benzylpiperidin-4-yl)methyl 2-hydroxy-2-(3-((1-(4-(2-(((R)-2-hydroxy-2-(8-hydroxy-2-oxo-1,2-dihydroquinolin-5-yl)ethyl)amino)ethyl)benzoyl)azetidin-3-yl)methoxy)phenyl)-2-phenylacetate]
pIC50 [1]: > 9.52
pIC50 [2]: > 9.52

O=C(COc1cccc([C@](O)(C(=O)OCC2CCN(Cc3ccccc3)CC2)c2ccccc2)c1)N1CCC(CNC[C@H](O)c2ccc(O)c3[nH]c(=O)ccc23)CC1 [Compound 36, (S)-(1-benzylpiperidin-4-yl)methyl 2-hydroxy-2-(3-(2-(4-((((R)-2-hydroxy-2-(8-hydroxy-2-oxo-1,2-dihydroquinolin-5-yl)ethyl)amino)methyl)piperidin-1-yl)-2-oxoethoxy)phenyl)-2-phenylacetate]
pIC50 [1]: > 9.52
pIC50 [2]: > 9.52

O=C(N[C@@H]1CCN(C(=O)COc2cccc([C@](O)(C(=O)OCC3CCN(Cc4ccccc4)CC3)c3ccccc3)c2)C1)c1ccc(CCNC[C@H](O)c2ccc(O)c3[nH]c(=O)ccc23)cc1 [Compound 110, (1-benzylpiperidin-4-yl)methyl (S)-2-hydroxy-2-(3-(2-((R)-3-(4-(2-(((R)-2-hydroxy-2-(8-hydroxy-2-oxo-1,2-dihydroquinolin-5-yl)ethyl)amino)ethyl)benzamido)pyrrolidin-1-yl)-2-oxoethoxy)phenyl)-2-phenylacetate]
pIC50 [1]: 8.52 to 9.52
pIC50 [2]: 8.52 to 9.52

O=C(COc1cccc([C@](O)(C(=O)OCC2CCN(Cc3ccccc3)CC2)c2ccccc2)c1)N[C@H]1CC[C@H](C(=O)N2CCC(CNC[C@H](O)c3ccc(O)c4[nH]c(=O)ccc34)CC2)CC1 [Compound 149, (1-benzylpiperidin-4-yl)methyl (S)-2-hydroxy-2-(3-(2-(((1R,4S)-4-(4-((((R)-2-hydroxy-2-(8-hydroxy-2-oxo-1,2-dihydroquinolin-5-yl)ethyl)amino)methyl)piperidine-1-carbonyl)cyclohexyl)amino)-2-oxoethoxy)phenyl)-2-phenylacetate]
pIC50 [1]: 8.52 to 9.52
pIC50 [2]: > 9.52

O=C(NCC1CCN(C(=O)COc2cccc([C@](O)(C(=O)OCC3CCN(Cc4ccccc4)CC3)c3ccccc3)c2)CC1)c1ccc(CCNC[C@H](O)c2ccc(O)c3[nH]c(=O)ccc23)cc1 [Compound 89, (1-benzylpiperidin-4-yl)methyl (S)-2-hydroxy-2-(3-(2-(4-((4-(2-(((R)-2-hydroxy-2-(8-hydroxy-2-oxo-1,2-dihydroquinolin-5-yl)ethyl)amino)ethyl)benzamido)methyl)piperidin-1-yl)-2-oxoethoxy)phenyl)-2-phenylacetate]
pIC50 [1]: > 9.52
pIC50 [2]: 8.52 to 9.52

O=C(N[C@H]1C[C@H](NC(=O)c2ccc(COc3cccc([C@](O)(C(=O)OCC4CCN(Cc5ccccc5)CC4)c4ccccc4)c3)cc2)C1)c1ccc(CCNC[C@H](O)c2ccc(O)c3[nH]c(=O)ccc23)cc1 [Compound 114, (1-Benzylpiperidin-4-yl)methyl (S)-2-hydroxy-2-(3-((4-(((1R,3S)-3-(4-(2-(((R)-2-hydroxy-2-(8-hydroxy-2-oxo-1,2-dihydroquinolin-5-yl)ethyl)amino)-ethyl)benzamido)cyclobutyl)carbamoyl)benzyl)oxy)phenyl)-2-phenylacetate]
pIC50 [1]: 8.52 to 9.52
pIC50 [2]: 8.52 to 9.52

O=C(c1cccc(COc2cccc([C@](O)(C(=O)OCC3CCN(Cc4ccccc4)CC3)c3ccccc3)c2)c1)N(CCCNC[C@H](O)c1ccc(O)c2[nH]c(=O)ccc12)Cc1ccccc1 [Compound 45, (S)-(1-Benzylpiperidin-4-yl)methyl 2-(3-((3-(benzyl(3-(((R)-2-hydroxy-2-(8-hydroxy-2-oxo-1,2-dihydroquinolin-5-yl)ethyl)amino)propyl)carbamoyl)benzyl)oxy)phenyl)-2-hydroxy-2-phenylacetate]
pIC50 [1]: 8.52 to 9.52
pIC50 [2]: 8.52 to 9.52

Cc1cccc(C(O)(C(=O)OCC2CCN(Cc3ccccc3)CC2)c2cccc(OCCCCCNC[C@H](O)c3ccc(O)c4[nH]c(=O)ccc34)c2)c1 (stereo partly drawn) [Compound 5, (1-benzylpiperidin-4-yl)methyl 2-hydroxy-2-(3-((5-(((R)-2-hydroxy-2-(8-hydroxy-2-oxo-1,2-dihydroquinolin-5-yl)ethyl)amino)pentyl)oxy)phenyl)-2-(m-tolyl)acetate]
pIC50 [1]: 8.52 to 9.52
pIC50 [2]: 8.52 to 9.52

O=C(c1ccc(CCNC[C@H](O)c2ccc(O)c3[nH]c(=O)ccc23)cc1)N1CCC(COc2cccc([C@](O)(C(=O)OCC3CCN(Cc4ccccc4)CC3)c3ccccc3)c2)CC1 [Compound 31, (S)-(1-Benzylpiperidin-4-yl)methyl 2-hydroxy-2-(3-((1-(4-(2-(((R)-2-hydroxy-2-(8-hydroxy-2-oxo-1,2-dihydroquinolin-5-yl)ethyl)amino)ethyl)benzoyl)piperidin-4-yl)methoxy)phenyl)-2-phenylacetate]
pIC50 [1]: > 9.52
pIC50 [2]: > 9.52

O=C(OCC1CCN(Cc2ccccc2)CC1)C(O)(c1ccccc1)c1ccc(OCCCCCNC[C@H](O)c2ccc(O)c3[nH]c(=O)ccc23)cc1 (stereo partly drawn) [Compound 51, (1-benzylpiperidin-4-yl)methyl 2-hydroxy-2-(4-((5-(((R)-2-hydroxy-2-(8-hydroxy-2-oxo-1,2-dihydroquinolin-5-yl)ethyl)amino)pentyl)oxy)phenyl)-2-phenylacetate diformate]
pIC50 [1]: > 9.52
pIC50 [2]: 8.52 to 9.52

COc1cc(C(=O)NCC(=O)N2CCC(COc3cccc([C@](O)(C(=O)OCC4CCN(Cc5ccccc5)CC4)c4ccccc4)c3)CC2)ccc1CNC[C@H](O)c1ccc(O)c2[nH]c(=O)ccc12 [Compound 153, (1-benzylpiperidin-4-yl)methyl (S)-2-hydroxy-2-(3-((1-((4-((((R)-2-hydroxy-2-(8-hydroxy-2-oxo-1,2-dihydroquinolin-5-yl)ethyl)amino)methyl)-3-methoxybenzoyl)glycyl)piperidin-4-yl)methoxy)phenyl)-2-phenylacetate]
pIC50 [1]: > 9.52
pIC50 [2]: > 9.52

COc1c(CNC[C@H](O)c2ccc(O)c3[nH]c(=O)ccc23)ccc(C(=O)N[C@H]2C[C@H](NC(=O)COc3cccc([C@](O)(C(=O)OCC4CCN(Cc5ccccc5)CC4)c4ccccc4)c3)C2)c1F [Compound 139, (1-benzylpiperidin-4-yl)methyl (S)-2-(3-(2-(((1R,3S)-3-(2-fluoro-4-((((R)-2-hydroxy-2-(8-hydroxy-2-oxo-1,2-dihydroquinolin-5-yl)ethyl)amino)methyl)-3-methoxybenzamido)cyclobutyl)amino)-2-oxoethoxy)phenyl)-2-hydroxy-2-phenylacetate]
pIC50 [1]: > 9.52
pIC50 [2]: 8.52 to 9.52
